*1 amine or outer side, *2 acyl side, *3 side chain or, on linkers, in order; H or OH if unused. Where a SMILES comes first, the peptide text is derived from it. Side-chain parts run from the residue outwards. The star is where a group is joined. C18 diacid = O=C(O)CCCCCCCCCCCCCCCCC(=O)*; γGlu = O=C(O)[C@H](CCC(=O)[*:2])N[*:1]; Isovaleryl = CC(C)CC(=O)*; Ahx = NCCCCCC(=O)O
How the values were obtained:
[1] = biological target: T1, Human Neuropeptide Y2 Receptor (Homo sapiens, UniProt P49146); assay: Radioligand binding competition assay (RLB); conditions: Table 3, 125I-PYY(1-36) competition; read-out: Ki
T1 construct: purchased CHEMICON HTS066M
T1 sequence (P49146 1-381): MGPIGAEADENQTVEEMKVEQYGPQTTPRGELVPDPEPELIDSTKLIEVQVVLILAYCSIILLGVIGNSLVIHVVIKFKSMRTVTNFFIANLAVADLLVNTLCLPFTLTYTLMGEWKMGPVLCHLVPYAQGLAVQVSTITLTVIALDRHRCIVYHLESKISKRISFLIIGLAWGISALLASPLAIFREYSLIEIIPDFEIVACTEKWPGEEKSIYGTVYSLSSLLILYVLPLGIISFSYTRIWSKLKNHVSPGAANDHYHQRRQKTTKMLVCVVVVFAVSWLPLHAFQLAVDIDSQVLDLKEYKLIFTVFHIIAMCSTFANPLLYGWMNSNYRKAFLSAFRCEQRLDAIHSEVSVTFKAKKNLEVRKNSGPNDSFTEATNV
How it was run: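 Filtration competition binding on membranes from cells expressing the receptor, 0.5 μg protein/well, in 50 mM HEPES, 5 mM MgCl2, 1 mM CaCl2, pH 7.4, with 0.2% ovalbumin. Incubation ran 2 h at room temperature, followed by GF/C filtration and scintillation counting. IC50 came from nonlinear sigmoidal fits.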

[2] = Solubility determination; conditions: for Sol6: pH 6; for Sol7: pH 7
How it was run: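 Solubility is derived from the ratio of reversed-phase peak areas, filtered sample over a control dissolved at 1 mg/ml in 50% acetonitrile. Peptides are agitated for 2 hours at room temperature in 0.1 M sodium diphosphate at pH 6.4 or 7.0, aiming at 10 mg/ml.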

| Ki [1] | Sol6 [2] | Sol7 [2] | SMILES |
| --- | --- | --- | --- |
| 2.06 nM | 8.7 mg/mL | 8.9 mg/mL | CC(C)CC(=O)N[C@@H](C)C(=O)N1CCC[C@H]1C(=O)N[C@@H](C)C(=O)N[C@@H](CCCCNC(=O)CCCCCNC(=O)CC[C@H](NC(=O)CCCCCCCCCCCCCCCCC(=O)O)C(=O)O)C(=O)N1CCC[C@H]1C(=O)N[C@@H](CCC(=O)O)C(=O)N[C@@H](CCC(=O)O)C(=O)N[C@@H](CC(=O)O)C(=O)N[C@@H](C)C(=O)N[C@@H](CO)C(=O)N[C@@H](CCC(=O)O)C(=O)N[C@@H](CCC(=O)O)C(=O)N[C@@H](CCC(=O)O)C(=O)N[C@@H](CC(C)C)C(=O)N[C@@H](CCC(N)=O)C(=O)N[C@@H](CCCNC(=N)N)C(=O)N[C@@H](Cc1ccc(O)cc1)C(=O)N[C@@H](Cc1ccc(O)cc1)C(=O)N[C@H](C(=O)N[C@@H](CO)C(=O)N[C@@H](CC(C)C)C(=O)N[C@@H](CCCNC(=N)N)C(=O)N[C@@H](Cc1c[nH]cn1)C(=O)N[C@@H](Cc1ccc(O)cc1)C(=O)N[C@@H](Cc1ccc(O)cc1)C(=O)N[C@@H](CC(N)=O)C(=O)N[C@@H](Cc1c[nH]c2ccccc12)C(=O)N[C@@H](CC(C)C)C(=O)N[C@H](C(=O)N[C@@H](CCCNC(=N)N)C(=O)N[C@@H](CCC(N)=O)C(=O)N[C@@H](CCCNC(=N)N)C(=O)N[C@@H](Cc1ccc(O)cc1)C(N)=O)[C@@H](C)O)C(C)C [Compound 185, N{alpha-4}-(3-methylbutanoyl)-N{epsilon-7}-(6-[(4S)-4-carboxy-4-(17-carboxyheptadecanamido)butanamido]hexanoyl)-[4A,6A,7K,9E,14E,18Q,22V,28Y,30W,31L]-hPYY(4-36)] |
| 2.75 nM | >10.0 mg/mL | 10.0 mg/mL | CC[C@H](C)[C@H](NC(=O)[C@H](Cc1ccc(O)cc1)NC(=O)[C@H](Cc1ccc(O)cc1)NC(=O)[C@H](CCCNC(=N)N)NC(=O)[C@H](CCC(N)=O)NC(=O)[C@H](CC(C)C)NC(=O)[C@H](CCC(=O)O)NC(=O)[C@H](CCC(=O)O)NC(=O)[C@@H]1CCCN1C(=O)[C@H](CCC(=O)O)NC(=O)[C@H](C)NC(=O)[C@H](CC(=O)O)NC(=O)[C@H](C)NC(=O)[C@H](CCC(=O)O)NC(=O)[C@@H]1CCCN1C(=O)[C@H](CCCCNC(=O)CCCCCNC(=O)CC[C@H](NC(=O)CCCCCCCCCCCCCCCCC(=O)O)C(=O)O)NC(=O)[C@H](CCC(=O)O)NC(=O)[C@@H]1CCCN1C(=O)[C@H](C)NC(=O)CC(C)C)C(=O)N[C@@H](CO)C(=O)N[C@@H](CC(C)C)C(=O)N[C@@H](CCCNC(=N)N)C(=O)N[C@@H](Cc1c[nH]cn1)C(=O)N[C@@H](Cc1ccc(O)cc1)C(=O)N[C@@H](Cc1ccc(O)cc1)C(=O)N[C@@H](CC(N)=O)C(=O)N[C@@H](Cc1c[nH]c2ccccc12)C(=O)N[C@@H](CC(C)C)C(=O)N[C@H](C(=O)N[C@@H](CCCNC(=N)N)C(=O)N[C@@H](CCC(N)=O)C(=O)N[C@@H](CCCNC(=N)N)C(=O)N[C@@H](Cc1ccc(O)cc1)C(N)=O)[C@@H](C)O [Compound 159, N{alpha-4}-(3-methylbutanoyl)-N{epsilon-7}-(6-[(4S)-4-carboxy-4-(17-carboxyheptadecanamido)butanamido]hexanoyl)-[4A,7K,9E,10A,13E,18Q,22I,28Y,30W,31L]-hPYY(4-36)] (Isovaleryl-APEK([Ahx-γGlu-C18 diacid])PEADAEPEELQRYYISLRHYYNWLTRQRY-NH2) |
| 8.32 nM | >10.0 mg/mL | >10.0 mg/mL | CC[C@H](C)[C@H](NC(=O)[C@H](CCC(=O)O)NC(=O)[C@H](CCC(=O)O)NC(=O)[C@@H]1CCCN1C(=O)[C@@H](NC(=O)[C@H](C)NC(=O)[C@H](CC(=O)O)NC(=O)[C@H](CCC(=O)O)NC(=O)[C@H](CCC(=O)O)NC(=O)[C@@H]1CCCN1C(=O)[C@H](CCCCNC(=O)CCCCCNC(=O)CC[C@H](NC(=O)CCCCCCCCCCCCCCCCC(=O)O)C(=O)O)NC(=O)[C@H](CCC(=O)O)NC(=O)[C@@H]1CCCN1C(=O)[C@H](C)NC(=O)CC(C)C)[C@@H](C)O)C(=O)N[C@@H](CCC(N)=O)C(=O)N[C@@H](CCCNC(=N)N)C(=O)N[C@@H](Cc1ccc(O)cc1)C(=O)N[C@@H](Cc1ccc(O)cc1)C(=O)N[C@@H](CCC(=O)O)C(=O)N[C@@H](CO)C(=O)N[C@@H](CC(C)C)C(=O)N[C@@H](CCCNC(=N)N)C(=O)N[C@@H](Cc1c[nH]cn1)C(=O)N[C@@H](Cc1ccc(O)cc1)C(=O)N[C@@H](Cc1ccc(O)cc1)C(=O)N[C@@H](CC(N)=O)C(=O)N[C@@H](Cc1c[nH]c2ccccc12)C(=O)N[C@@H](CC(C)C)C(=O)N[C@H](C(=O)N[C@@H](CCCNC(=N)N)C(=O)N[C@@H](CCC(N)=O)C(=O)N[C@@H](CCCNC(=N)N)C(=O)N[C@@H](Cc1ccc(O)cc1)C(N)=O)[C@@H](C)O [Compound 191, N{alpha-4}-(3-methylbutanoyl)-N{epsilon-7}-(6-[(4S)-4-carboxy-4-(17-carboxyheptadecanamido)butanamido]hexanoyl)-[4A,7K,9E,13T,17I,18Q,22E,28Y,30W,31L]-hPYY(4-36)] |
| 2.8 nM | 10.0 mg/mL | 10.0 mg/mL | CC(C)CC(=O)N[C@@H](C)C(=O)N1CCC[C@H]1C(=O)N[C@@H](CCC(=O)O)C(=O)N[C@@H](CCCCNC(=O)CCCCCNC(=O)CC[C@H](NC(=O)CCCCCCCCCCCCCCCCC(=O)O)C(=O)O)C(=O)N1CCC[C@H]1C(=O)N[C@@H](CCC(=O)O)C(=O)N[C@@H](CCC(=O)O)C(=O)N[C@@H](CC(=O)O)C(=O)N[C@@H](C)C(=O)N[C@H](C(=O)N1CCC[C@H]1C(=O)N[C@@H](CCC(=O)O)C(=O)N[C@@H](CCC(=O)O)C(=O)N[C@@H](CCC(N)=O)C(=O)N[C@@H](CCC(N)=O)C(=O)N[C@@H](CCCNC(=N)N)C(=O)N[C@@H](Cc1ccc(O)cc1)C(=O)N[C@@H](Cc1ccc(O)cc1)C(=O)N[C@H](C(=O)N[C@@H](CO)C(=O)N[C@@H](CC(C)C)C(=O)N[C@@H](CCCNC(=N)N)C(=O)N[C@@H](Cc1c[nH]cn1)C(=O)N[C@@H](Cc1ccc(O)cc1)C(=O)N[C@@H](Cc1ccc(O)cc1)C(=O)N[C@@H](CC(N)=O)C(=O)N[C@@H](Cc1c[nH]c2ccccc12)C(=O)N[C@@H](CC(C)C)C(=O)N[C@H](C(=O)N[C@@H](CCCNC(=N)N)C(=O)N[C@@H](CCC(N)=O)C(=O)N[C@@H](CCCNC(=N)N)C(=O)N[C@@H](Cc1ccc(O)cc1)C(N)=O)[C@@H](C)O)C(C)C)[C@@H](C)O [Compound 134, N{alpha-4}-(3-methylbutanoyl)-N{epsilon-7}-(6-[(4S)-4-carboxy-4-(17-carboxyheptadecanamido)butanamido]hexanoyl)-[4A,7K,9E,13T,17Q,18Q,22V,28Y,30W,31L]-hPYY(4-36)] |
| 1.61 nM | 8.6 mg/mL | 9.1 mg/mL | CC(C)CC(=O)N[C@@H](C)C(=O)N1CCC[C@H]1C(=O)N[C@@H](C)C(=O)N[C@@H](CCCCNC(=O)CCCCCNC(=O)CC[C@H](NC(=O)CCCCCCCCCCCCCCCCC(=O)O)C(=O)O)C(=O)N1CCC[C@H]1C(=O)N[C@@H](CCC(=O)O)C(=O)N[C@@H](CCC(=O)O)C(=O)N[C@@H](CC(=O)O)C(=O)N[C@@H](C)C(=O)N[C@@H](CO)C(=O)N1CCC[C@H]1C(=O)N[C@@H](CCC(=O)O)C(=O)N[C@@H](CCC(=O)O)C(=O)N[C@H](C(=O)N[C@@H](CCC(N)=O)C(=O)N[C@@H](CCCNC(=N)N)C(=O)N[C@@H](Cc1ccc(O)cc1)C(=O)N[C@@H](Cc1ccc(O)cc1)C(=O)N[C@H](C(=O)N[C@@H](CO)C(=O)N[C@@H](CC(C)C)C(=O)N[C@@H](CCCNC(=N)N)C(=O)N[C@@H](Cc1c[nH]cn1)C(=O)N[C@@H](Cc1ccc(O)cc1)C(=O)N[C@@H](Cc1ccc(O)cc1)C(=O)N[C@@H](CC(N)=O)C(=O)N[C@@H](Cc1c[nH]c2ccccc12)C(=O)N[C@@H](CC(C)C)C(=O)N[C@H](C(=O)N[C@@H](CCCNC(=N)N)C(=O)N[C@@H](CCC(N)=O)C(=O)N[C@@H](CCCNC(=N)N)C(=O)N[C@@H](Cc1ccc(O)cc1)C(N)=O)[C@@H](C)O)C(C)C)[C@@H](C)O [Compound 85, N{alpha-4}-(3-methylbutanoyl)-N{epsilon-7}-(6-[(4S)-4-carboxy-4-(17-carboxyheptadecanamido)butanamido]hexanoyl)-[4A,6A,7K,9E,17T,18Q,22V,28Y,30W,31L]-hPYY(4-36)] |
